Residues, ends and D or L forms follow the SMILES beside them.
Columns and labels:
[1] = Encapsulation of Dox and MNPs by coacervates; assay type: physicochemical; settings: DgHBP-2-peptide coacervates
Method: Dox (Final concentration: 0.04 mg mL^−1) and MNPs (Final concentration: 0.008% v/v) were first added to phosphate buffer (pH 9.5 0.1M) to their final concentrations. DgHBP-2 peptide stock solution (10 mg mL^−1) was successively added to the buffer/drug mixture in a 1:9 ratio to trigger encapsulation and coacervation. Gentle pipetting was then done to mix the final mixture.

[2] = cited from earlier work
NIH3T3 mouse fibroblasts = assay: MTT assay; assay type: cell-based
Method: NIH3T3 mouse fibroblasts were used to estimate the cytotoxicity of DgHBP-2 peptide and coacervates. The fibroblasts were cultivated using Dulbecco's modified eagle medium supplemented with 10% of fetal bovine serum, 100 units/mL of penicillin and 100 μg/mL of streptomycin in a 37° C. incubator with 5% CO2. 100 μL of cells with a cell density of 1×10^4 cells/mL were seeded onto a 96-well plate (Thermo Fisher Scientific). After 24 hours, the cell culture media was substituted with 100 μL of fresh media containing different concentration of peptide or insulin-loaded coacervates. After another 24 hours, 10 μL of MTT solution (concentration: 5 mg/mL) was added into each well. Cell culture media and the excess MTT was then removed after 4 hours of incubation. 100 μL of DMSO was subsequently added into each well to dissolve the formazan crystals. The dissolved crystals were then measured at 570 nm on a 96-well microplate reader (Infinity M200, Tecan). Relative cell viability is calculated as:
[formula] where At, Ac, and Ab represent absorbance values of wells containing tested cells, control cells and DMSO, respectively. In Vitro Release Assay (Timepoint Assay)

SMILES | encapsulation efficiency of Dox [1] [%] | unencapsulated Dox [1] [%] | pKa [2] | cytotoxicity (NIH3T3 mouse fibroblasts)
COc1cccc2c1C(=O)c1c(O)c3c(c(O)c1C2=O)C[C@@](O)(C(=O)CO)C[C@@H]3O[C@H]1C[C@H](N)[C@H](O)[C@H](C)O1 [Dox, Doxorubicin] | ~40 | 60 | ~8.46 | –
CC(C)C[C@H](NC(=O)CNC(=O)[C@H](Cc1c[nH]cn1)NC(=O)CNC(=O)[C@H](Cc1ccc(O)cc1)NC(=O)[C@@H]1CCCN1C(=O)CNC(=O)[C@H](Cc1c[nH]cn1)NC(=O)CNC(=O)[C@H](Cc1ccc(O)cc1)NC(=O)[C@@H]1CCCN1C(=O)CNC(=O)[C@H](Cc1c[nH]cn1)NC(=O)CNC(=O)[C@H](Cc1ccc(O)cc1)NC(=O)[C@@H](NC(=O)CNC(=O)[C@H](Cc1c[nH]cn1)NC(=O)CNC(=O)[C@H](Cc1ccc(O)cc1)NC(=O)[C@@H](NC(=O)CNC(=O)[C@H](Cc1c[nH]cn1)NC(=O)CN)C(C)C)C(C)C)C(=O)N[C@@H](Cc1ccc(O)cc1)C(=O)N[C@@H](Cc1c[nH]c2ccccc12)C(=O)O [DgHBP-2 peptide, GHGVYGHGVYGHGPYGHGPYGHGLYW] (H-GHGVYGHGVYGHGPYGHGPYGHGLYW-OH) | – | – | – | negligible

Source: patent US11179342B2, “Peptide coacervates and methods of use thereof” (NANYANG TECHNOLOGICAL UNIVERSITY, priority 2018, dated 2021)
